Source: patent US20240408086A1, “USE OF LUVADAXISTAT FOR THE TREATMENT OF COGNITIVE IMPAIRMENT” (TAKEDA PHARMACEUTICAL COMPANY LIMITED, priority 2021, published 2024)

Tests used:
[1] = system: patients with schizophrenia; experiment: Phase 1b crossover study: mismatch negativity (MMN) amplitude; type: in vivo, human
Description: (§1) NCT03359785 was a randomized, double-blind, placebo-controlled cross-over Phase 1b clinical trial in schizophrenia patients at a single site to evaluate PD effects, safety, tolerability, and pharmacokinetics of multiple oral doses of Compound (I). The objective of the study was to assess pharmacodynamic (PD) biomarkers of Compound (I) on measures related to cerebellar circuitry function and NMDA pharmacology that are known to be affected in schizophrenia.
Evoked potentials in the electroencephalogram were also tested to assess the impact of multiple oral doses of Compound (I) on NMDA-sensitive physiological responses that are affected in schizophrenia. Specifically, mismatch negativity (MMN), auditory steady state response (ASSR), and P300 were measured at baseline and following 8 days of treatment in both periods.
MMN is an oddball event-related potential sensitive to NMDA-receptor pharmacology. MMN is an event related potential (ERP) evoked in response to unattended changes in background stimulation and is responsive to D-serine elevations. There is evidence of D-serine administration improving MMN in patients with schizophrenia. MMN reflects an automatic process of detecting a mismatch between a deviant stimulus and a sensory-memory trace (FIGS. 11A, 11B). Smaller amplitudes of MMN have been consistently identified in schizophrenia participants, with a large effect size compared with healthy controls. In this study, MMN amplitude was measured at Midline frontal electrode (Fz) of electroencephalogram [EEG].
All endpoints were analyzed as change from baseline compared to placebo within the same subjects. Statistical comparisons were conducted with an ANOVA model, with treatment sequence, period, and treatment as fixed effects, and subject as a random effect. As a supplementary analysis, an analysis of covariance model (ANCOVA) was applied to the primary endpoint with (period) baseline as a covariate, treatment sequence, period, treatment effect and baseline-by-treatment as fixed effects, and subject as a random effect.

mouse hippocampus = experiment: Hippocampal long-term potentiation (LTP) after acute and sub-chronic oral dosing; type: in vivo, mice
Protocol: In this study, hippocampal synaptic plasticity was evaluated using a well-established long-term potentiation (LTP) paradigm after acute and sub-chronic (14 days) dosing with Compound (I).
Wild-type mice aged 5-6 weeks (total of 97; n=5-8 per condition) were given acute or sub-chronic (14-day) oral doses of Compound (I) (from 0.001 mg/kg to 10 mg/kg, p.o.) or vehicle (1% Tween 80 in 0.5% methylcellulose). Hippocampal slices were harvested after 5 hours. Cerebellum and blood plasma were also obtained to measure D-serine levels achieved in the experimental animals.
Electrophysiological recordings were obtained from a single hippocampal slice placed on the chamber and perfused with aCSF at a constant rate. Extracellular field excitatory postsynaptic potentials (fEPSPs) were recorded in the CA1 stratum radiatum using a glass micropipette filled with aCSF. fEPSPs were evoked by electrical stimulation of Schaffer collaterals/commissural pathway at 0.1 Hz with a glass stimulating electrode placed in the stratum radiatum.
To test the effect of Compound (I) on basal synaptic transmission, Input/Output […] curves were constructed at the beginning of the experiment. The slope of fEPSPs was measured and plotted against different intensities of stimulation (from 0 to 100 μA). Long-term potentiation (LTP) was induced by a theta burst stimulation protocol (10 bursts of 4 pulses at 100 Hz, with 200 ms between bursts) at baseline stimulation intensity. Following this conditioning stimulus, a 1-hour test period was recorded where responses were again elicited by a single stimulation every 10 seconds (0.1 Hz) at the same stimulus intensity.

Mouse [2] = experiment: BALB/C social interaction; type: in vivo; design: key: a + sign means efficacious; a − sign means not efficacious; conditions: for BALB/C social interaction (negative symptoms): 14-Day Once Daily (QD); for BALB/C social interaction (acute): Single Dose
Description: (§2) In Table 1, a + sign means efficacious, a − sign means not efficacious, and an empty cell indicates a dose was not tested.

Mouse [3] = experiment: Poly I:C social interaction (acute); type: in vivo; design: key: a + sign means efficacious; a − sign means not efficacious; conditions: Single Dose
Description: as §2

[4] = system: scopolamine-induced EBC deficits; conditions: preclinical studies; see Example 2 of WO 2015/132608; cited from earlier work
[5] = system: patients with schizophrenia; experiment: Phase 1b crossover study: safety and tolerability; type: in vivo, human; conditions: 50 or 500 mg for 8 consecutive days
Description: as §1
Safety objectives included the incidence of treatment-emergent adverse events (TEAEs), laboratory tests, vital signs, and electrocardiogram (ECG) assessments.

## O=c1[nH]nc(CCc2ccc(C(F)(F)F)cc2)cc1O [Compound (I), luvadaxistat]
[1]; 50 mg for 8 days
  MMN amplitude, effect size vs placebo: −0.691
[1]; 50 mg for 8 days, placebo 0.669, p=0.0497
  MMN amplitude, LS means change from baseline: −0.239
[1]; 500 mg for 8 days
  MMN amplitude, effect size vs placebo: 0.389
[1]; 500 mg for 8 days, placebo −0.154, p=0.8517
  MMN amplitude, LS means change from baseline: 0.594
Mouse hippocampus; single oral doses vs vehicle, one-way ANOVA
  LTP in the mouse hippocampus: did not significantly affect LTP
Mouse hippocampus; sub-chronic (14-day) oral dose 0.001 mg/kg, p<0.05 vs vehicle
  LTP in the mouse hippocampus: increased LTP
Mouse hippocampus; sub-chronic (14-day) oral dose 0.01 mg/kg, p<0.05 vs vehicle
  LTP in the mouse hippocampus: increased LTP
Mouse hippocampus; sub-chronic (14-day) oral dose 0.1 mg/kg, p<0.05 vs vehicle
  LTP in the mouse hippocampus: decreased LTP
Mouse hippocampus; sub-chronic (14-day) oral dose 10 mg/kg, p<0.05 vs vehicle
  LTP in the mouse hippocampus: decreased LTP
Mouse [2]; 0.001 mg/kg
  BALB/C social interaction (negative symptoms): −
Mouse [2]; 0.003 mg/kg
  BALB/C social interaction (negative symptoms): −
Mouse [2]; 0.01 mg/kg
  BALB/C social interaction (negative symptoms): +
Mouse [2]; 0.03 mg/kg
  BALB/C social interaction (negative symptoms): +
Mouse [2]; 0.1 mg/kg
  BALB/C social interaction (negative symptoms): +
Mouse [2]; 0.3 mg/kg
  BALB/C social interaction (negative symptoms): +
  BALB/C social interaction (acute): −
Mouse [2]; 1 mg/kg
  BALB/C social interaction (negative symptoms): +
  BALB/C social interaction (acute): +
Mouse [2]; 3 mg/kg
  BALB/C social interaction (negative symptoms): +
  BALB/C social interaction (acute): +
Mouse [3]; 0.3 mg/kg
  Poly I:C social interaction (acute): −
Mouse [3]; 1 mg/kg
  Poly I:C social interaction (acute): −
Mouse [3]; 3 mg/kg
  Poly I:C social interaction (acute): +
[4]
  Reversal of scopolamine-induced EBC deficits: robust effects in reversing scopolamine-induced EBC deficits
[5]
  Deaths, serious adverse events, TEAEs leading to discontinuation of study drug: no deaths, serious adverse events (AEs), or TEAEs leading to discontinuation of study drug
  Tolerability in the Phase 1b study: generally well tolerated
